Measured values as given in ChEMBL document CHEMBL3124884, “Leporizines A-C: epithiodiketopiperazines isolated from an Aspergillus species” (J Nat Prod, 2013).
Calls of active or inactive are those of the source. The calls are words filed in the database; no cut-off is given here.

Legend:
[1] = test system: Cystic fibrosis transmembrane conductance regulator (Homo sapiens), P13569 [F508del]; assay: Activity at CFTR F508del mutant (unknown origin) expressed in Fischer rat thyroid epithelial cells co-expressing YFP-H148Q/I152L assessed as forskolin/PG-01-induced increase in conductance reversible effect at >5 uM after 16 to 20 mins by conductance corrector assay; format: cell-based; settings: Epithelial cell
Chain of Cystic fibrosis transmembrane conductance regulator (Homo sapiens), P13569 [F508del] (P13569 as listed by the source): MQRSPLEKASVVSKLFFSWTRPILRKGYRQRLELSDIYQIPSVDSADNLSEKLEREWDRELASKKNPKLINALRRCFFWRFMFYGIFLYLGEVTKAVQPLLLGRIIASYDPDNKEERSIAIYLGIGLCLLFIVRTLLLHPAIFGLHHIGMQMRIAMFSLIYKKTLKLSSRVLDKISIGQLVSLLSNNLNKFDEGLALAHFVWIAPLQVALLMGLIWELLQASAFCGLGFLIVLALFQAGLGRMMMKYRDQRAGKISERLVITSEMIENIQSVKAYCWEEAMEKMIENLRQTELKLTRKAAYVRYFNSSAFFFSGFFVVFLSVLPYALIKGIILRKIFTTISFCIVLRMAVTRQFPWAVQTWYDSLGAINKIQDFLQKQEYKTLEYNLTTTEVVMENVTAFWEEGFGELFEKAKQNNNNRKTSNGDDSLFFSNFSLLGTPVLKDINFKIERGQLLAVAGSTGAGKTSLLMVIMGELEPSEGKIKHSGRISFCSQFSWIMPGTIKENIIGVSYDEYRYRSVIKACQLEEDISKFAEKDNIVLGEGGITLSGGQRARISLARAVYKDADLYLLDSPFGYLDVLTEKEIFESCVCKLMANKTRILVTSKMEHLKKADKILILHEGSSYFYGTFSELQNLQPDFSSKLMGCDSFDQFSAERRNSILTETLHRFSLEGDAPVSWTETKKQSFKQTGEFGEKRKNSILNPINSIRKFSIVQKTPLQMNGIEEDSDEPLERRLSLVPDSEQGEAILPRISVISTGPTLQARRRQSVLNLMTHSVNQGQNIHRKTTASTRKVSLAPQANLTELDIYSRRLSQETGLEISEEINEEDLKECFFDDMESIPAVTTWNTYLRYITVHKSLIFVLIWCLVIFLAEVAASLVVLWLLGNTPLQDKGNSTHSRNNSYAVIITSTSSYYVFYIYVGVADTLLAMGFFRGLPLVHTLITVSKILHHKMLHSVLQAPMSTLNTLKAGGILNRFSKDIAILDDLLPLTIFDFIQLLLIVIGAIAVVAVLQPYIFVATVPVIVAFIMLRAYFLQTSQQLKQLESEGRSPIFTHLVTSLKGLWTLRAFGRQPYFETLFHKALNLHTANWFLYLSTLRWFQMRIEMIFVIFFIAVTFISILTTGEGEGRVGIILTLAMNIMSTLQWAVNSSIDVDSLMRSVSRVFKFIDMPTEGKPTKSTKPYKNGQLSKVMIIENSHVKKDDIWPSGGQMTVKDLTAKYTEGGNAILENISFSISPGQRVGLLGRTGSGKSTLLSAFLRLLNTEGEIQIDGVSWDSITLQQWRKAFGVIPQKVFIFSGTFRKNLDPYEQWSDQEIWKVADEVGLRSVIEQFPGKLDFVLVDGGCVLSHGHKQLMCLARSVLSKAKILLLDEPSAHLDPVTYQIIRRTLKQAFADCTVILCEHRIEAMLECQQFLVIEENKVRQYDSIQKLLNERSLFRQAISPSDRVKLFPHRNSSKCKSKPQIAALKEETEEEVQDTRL

HepG2 = assay: Cytotoxicity against human HepG2 cells; format: cell-based
[2] = test system: Cystic fibrosis transmembrane conductance regulator (Homo sapiens), P13569 [F508del]; assay: Activity at CFTR F508del mutant (unknown origin) expressed in Fischer rat thyroid epithelial cells co-expressing YFP-H148Q/I152L assessed as forskolin/PG-01-induced increase in conductance reversible effect at 10 to 20 uM after 16 to 20 mins by conductance corrector assay in presence of CFInh-172; format: cell-based; settings: Epithelial cell
[3] = test system: Cystic fibrosis transmembrane conductance regulator (Homo sapiens), P13569 [F508del]; assay: Activity at CFTR F508del mutant (unknown origin) expressed in Fischer rat thyroid epithelial cells co-expressing YFP-H148Q/I152L assessed as forskolin/PG-01-induced increase in conductance reversible effect at <= 5 uM after 16 to 20 hrs by conductance corrector assay; settings: Epithelial cell
[4] = test system: Cystic fibrosis transmembrane conductance regulator (Homo sapiens), P13569 [F508del]; assay: Activity at CFTR F508del mutant (unknown origin) expressed in Fischer rat thyroid epithelial cells co-expressing YFP-H148Q/I152L assessed as loss of baseline transepithelial resistance at >5 uM after 16 to 20 mins by conductance corrector assay; format: cell-based; settings: Epithelial cell
[5] = test system: Cystic fibrosis transmembrane conductance regulator (Homo sapiens), P13569 [F508del]; assay: Activity at CFTR F508del mutant (unknown origin) expressed in Fischer rat thyroid epithelial cells co-expressing YFP-H148Q/I152L assessed as loss of baseline transepithelial resistance at 10 uM after 16 to 20 mins by conductance corrector assay; format: cell-based; settings: Epithelial cell
[6] = test system: Cystic fibrosis transmembrane conductance regulator (Homo sapiens), P13569 [F508del]; assay: Activity at CFTR F508del mutant (unknown origin) expressed in Fischer rat thyroid epithelial cells co-expressing YFP-H148Q/I152L assessed as forskolin/PG-01-induced increase in conductance reversible effect at 2.5 to 20 uM after 16 to 20 mins by conductance corrector assay; format: cell-based; settings: Epithelial cell
[7] = test system: Cystic fibrosis transmembrane conductance regulator (Homo sapiens), P13569 [F508del]; assay: Activity at CFTR F508del mutant (unknown origin) expressed in Fischer rat thyroid epithelial cells co-expressing YFP-H148Q/I152L assessed as loss of baseline transepithelial resistance at 2.5 to 20 uM after 16 to 20 mins by conductance corrector assay; format: cell-based; settings: Epithelial cell

In the case of `C[C@@H]1OC2=C(C(=O)C3(O)C(C2)N2C(=O)[C@@]45SSS[C@@]2(C(=O)N4[C@H]2Nc4ccccc4C2(O)[C@H]5O)[C@@H]3O)C1(C)C` (some centres undefined), the Activity [1] is reported as “Active”, the Activity (HepG2) is reported as “Toxic” and the Activity [2] is reported as “Active”. For the same molecule, the Activity [3] was “inactive” and the Activity [4] was “Active”.

In the case of `COc1ccc(Cl)cc1Nc1nc(-c2sc(NC(=O)C(C)(C)C)nc2C)cs1`, the Activity [5] is reported as “Active”.

In the case of `CS[C@]12C(=O)N3[C@H]4Nc5ccccc5C4(O)[C@@H](O)[C@@]3(SC)C(=O)N1C1CC3=C(C(=O)C1(O)[C@H]2O)C(C)(C)[C@H](C)O3` (some centres undefined), the Activity (HepG2) is reported as “Non-toxic”, the Activity [6] is reported as “inactive” and the Activity [7] is reported as “inactive”.

In the case of `C[C@@H]1OC2=C(C(=O)C3(O)C(C2)N2C(=O)[C@@]45SS[C@@]2(C(=O)N4[C@H]2Nc4ccccc4C2(O)[C@H]5O)[C@@H]3O)C1(C)C` (some centres undefined), the Activity [1] is reported as “Active”, the Activity (HepG2) is reported as “Toxic” and the Activity [2] is reported as “Active”. For the same molecule, the Activity [3] was “inactive” and the Activity [4] was “Active”.
